Measured values taken from patent US7932262B2 (Novartis AG, priority 2006, dated 2011).

Columns and labels:
A2780 cells = experiment: Cell Proliferation Assay (Cell Titer Glo), A2780; format: cell-based; conditions: Homo sapiens, 72 h; A2780 cells, 3 days incubation; read-out: CPEC50 A2780
Summary of the method: (§1)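 Cells seeded at 1000/well, allowed to adhere 3-5 h, then exposed to DMSO-dissolved compounds for 3 days at 37° C., 5% CO2. Medium replaced before Cell Titer Glo addition; luminescence read after 10 min.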

PC-3 cells = experiment: Cell Proliferation Assay (Cell Titer Glo), PC-3 cell line; format: cell-based; conditions: Homo sapiens, PC-3, 72 h, PC-3 cells, 3 days incubation; read-out: CP EC50 PC3
Summary of the method: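 PC-3 cells, 1000 cells/well, left to adhere 3-5 h, then exposed for 3 days at 37° C to compounds as 1:3 serial dilutions from 500× DMSO stocks diluted in growth medium. Medium then replaced with fresh medium and viability read by Cell Titer Glo luminescence.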

PC3MM cells = experiment: Cell Proliferation Assay (Cell Titer Glo), PC3MM; format: cell-based; conditions: 72 h; PC3MM cells, 3 days incubation; read-out: CP EC50 PC3MM
Summary of the method: as §1

[1] = tested on: pAkt308 (phosphorylation of Akt at T308) in PC-3 cells; experiment: pAkt T308 ECL Assay in PC-3 cells; format: cell-based; conditions: Homo sapiens, 6 h, six hours with compound, read-out: PAKT308 PC3 IC50
Protocol: VI. The pAkt^T308 ECL Assay Protocol
On Day 1, PC-3 cells were seeded at 15,000 cells/well in 100 μL/well ([…]) growth media into black-walled, clear bottom, poly-L-lysine coated plates. The cells were incubated overnight in a 37° C., 5% CO2 incubator.
On Day 2, a MSD ECL plate was blocked for two hours with 150 μL per well of 3% MSD blocker A.
Test compounds were diluted to 500× in DMSO and then were subjected to further serial dilution using a BioMek 2000 instrument. DMSO diluted compounds were then diluted into growth media and then added to the cell plates.
The cell plates incubated with compounds for six hours in a 37° C., 5% CO2 incubator after which the growth medium was removed and 55 μl of MSD lysis buffer was added to cell plates on ice. The plates were lysed on ice for five minutes followed by 15 minutes of vigorous shaking on a plate shaker at 4° C. The blocked MSD assay plates were washed twice with 1×MSD wash buffer followed by the addition of cell lysate as follows: 30 μl of cell lysate was added to the pAkt308 plates and 13 μl of lysate+12 μl lysis buffer was added to the tAkt plates. The plates were then sealed and shaken at 4° C. overnight.
On Day 3, the MSD plates were washed four times with 1×MSD wash buffer then, 25 μl/well of MSD SULFO-TAG antibodies diluted to 10 nM final concentration in 1% blocker. A buffer was added to the antibody diluent which was added to assay plates. The plates were then sealed and incubated at RT for 1.5 hour. The plates were then washed twice with 1×MSD wash buffer followed by the addition of 150 μl/well of 1.5×MSD read buffer. The plates were read immediately after the addition of read buffer using a Trilux instrument. […]

PDK1 kinase = target: T1, PDK1 kinase (Homo sapiens, UniProt O15530); experiment: PDK1 Kinase Alpha Screen Assay; format: biochemical; conditions: read-out: PDK1 IC50
T1 sequence (O15530 1-556): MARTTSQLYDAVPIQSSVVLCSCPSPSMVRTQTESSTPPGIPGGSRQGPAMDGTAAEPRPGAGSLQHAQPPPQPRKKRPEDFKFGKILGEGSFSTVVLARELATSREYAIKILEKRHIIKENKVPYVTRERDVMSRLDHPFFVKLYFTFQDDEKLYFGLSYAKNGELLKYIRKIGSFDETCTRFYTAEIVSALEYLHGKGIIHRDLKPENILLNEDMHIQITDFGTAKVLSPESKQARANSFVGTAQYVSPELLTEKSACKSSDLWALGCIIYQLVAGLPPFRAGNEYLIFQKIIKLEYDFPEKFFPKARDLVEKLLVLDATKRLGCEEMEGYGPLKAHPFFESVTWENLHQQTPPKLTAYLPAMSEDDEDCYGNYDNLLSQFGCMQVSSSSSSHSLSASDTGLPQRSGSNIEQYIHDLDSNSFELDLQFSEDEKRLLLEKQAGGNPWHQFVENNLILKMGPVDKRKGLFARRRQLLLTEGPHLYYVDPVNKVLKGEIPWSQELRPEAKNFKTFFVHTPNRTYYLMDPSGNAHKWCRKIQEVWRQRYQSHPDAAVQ
Summary of the method: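 PDK1 phosphorylated 50 nM biotinylated PDK1-4 peptide with 10 uM ATP in Tris pH 7.5, 10 mM MgCl2, 2 mM DTT, 2.5% DMSO for 3-18 hours. After EDTA stop, phosphopeptide was detected by AlphaScreen using phospho-(Ser/Thr) PKA substrate antibody with protein A/streptavidin beads, read after overnight incubation.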

Row | SMILES | EC50 (A2780 cells) | EC50 (PC-3 cells) | EC50 (PC3MM cells) | IC50 [1] | IC50 (PDK1 kinase)
1 | CN1CCC(Oc2ccc3cnc(Nc4ccc(S(N)(=O)=O)cc4)nc3c2)CC1 [Compound 52, 4-[7-(1-Methyl-piperidin 4-yloxy)-quinazolin-2-ylamino]-benzenesulfonamide] | < 5 µM | < 5 µM | < 5 µM | < 5 µM | < 5 µM
2 | NS(=O)(=O)c1ccc(Nc2ncc3cc(Br)cc(OC4CN5CCC4CC5)c3n2)cc1 (centres unmarked) [Compound 2, 4-[8-(1-Aza-bicyclo[2.2.2]oct-3-yloxy)-6-bromo-quinazolin-2-yl-amino]-benzenesulfonamide] | < 5 µM | < 5 µM | – | < 5 µM | < 5 µM
3 | NS(=O)(=O)c1ccc(Nc2ncc3cc(Br)cc(OC4CCNCC4)c3n2)cc1 [Compound 1, 4-[6-Bromo-8-(piperidin-4-yloxy)-quinazolin-2-ylamino]-benzenesulfonamide] | < 5 µM | < 5 µM | – | 5 to 10 µM | < 5 µM
4 | NS(=O)(=O)c1ccc(Nc2ncc3ccc(-c4cccnc4F)cc3n2)cc1 [Compound 137, 4-[7-(2-Fluoro-pyridin-3-yl)-quinazolin-2-ylamino]-benzenesulfonamide] | < 5 µM | < 5 µM | – | < 5 µM | < 5 µM
5 | NS(=O)(=O)c1ccc(Nc2ncc3ccc(OC4CCNCC4)cc3n2)cc1 [Compound 51, 4-[7-(Piperidin-4-yloxy)-quinazolin-2-ylamino]-benzenesulfonamide] | < 5 µM | < 5 µM | – | < 5 µM | < 5 µM
6 | O=S(=O)(NC1CC1)c1ccc(Nc2ncc3cccc(OC4CCNCC4)c3n2)cc1 [Compound 13, N-Cyclopropyl-4-[8-(piperidin-4-yloxy)-quinazolin-2-ylamino]-benzenesulfonamide] | < 5 µM | < 5 µM | – | < 5 µM | < 5 µM
7 | CN1CCC(Oc2ccc3cnc(Nc4ccc(S(=O)(=O)N5CCOCC5)cc4)nc3c2)CC1 [Compound 53, [7-(1-Methyl-piperidin-4-yloxy)-quinazolin-2-yl]-[4-(morpholine-4-sulfonyl)-phenyl]-amine] | < 5 µM | < 5 µM | – | < 5 µM | < 5 µM
8 | CC(C)NS(=O)(=O)c1ccc(Nc2ncc3cccc(OC4CCNCC4)c3n2)cc1 [Compound 11, N-Isopropyl-4-[8-(piperidin-4-yloxy)-quinazolin-2-ylamino]-benzenesulfonamide] | < 5 µM | < 5 µM | – | < 5 µM | < 5 µM
9 | NS(=O)(=O)c1ccc(Nc2ncc3cccc(OC4CCNCC4)c3n2)cc1 [Compound 31, 4-[8-(Piperidin-4-yloxy)-quinazolin-2-ylamino]-benzenesulfonamide] | < 5 µM | < 5 µM | – | < 5 µM | < 5 µM
10 | CC(C)N1CCC(c2c(O)ccc3cnc(Nc4ccc(S(N)(=O)=O)cc4)nc23)CC1 [Compound 134, 4-[7-Hydroxy-8-(1-isopropyl-piperidin-4-yl)-quinazolin-2-ylamino]-benzenesulfonamide] | < 5 µM | < 5 µM | – | < 5 µM | < 5 µM
11 | COCCNS(=O)(=O)c1ccc(Nc2ncc3cccc(OC4CCNCC4)c3n2)cc1 [Compound 12, N-(2-Methoxy-ethyl)-4-[8-(piperidin-4-yloxy)-quinazolin-2-ylamino]-benzenesulfonamide] | < 5 µM | < 5 µM | – | < 5 µM | < 5 µM
12 | CC(C)N1CCC(Oc2cccc3cnc(Nc4ccc(S(=O)(=O)N5CCOCC5)cc4)nc23)CC1 [Compound 4, [8-(1-Isopropyl-piperidin-4-yloxy)-quinazolin-2-yl]-[4-(morpholine-4-sulfonyl)-phenyl]-amine] | < 5 µM | < 5 µM | – | < 5 µM | < 5 µM
13 | CC(C)NC(=O)c1ccc(Nc2ncc3cccc(OC4CCN(C(C)C)CC4)c3n2)cc1 [Compound 44, N-Isopropyl-4-[8-(1-isopropyl-piperidin-4-yloxy)-quinazolin-2-ylamino]-benzamide] | < 5 µM | < 5 µM | – | < 5 µM | < 5 µM
